Measured values taken from PubChem BioAssay AID179 (DTP/NCI, 2004).
Activity calls are given as the source filed them.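 The calls were made as follows: active = compounds giving half or more protection of infected cells from virus-caused growth loss, again on retest; inactive = the rest.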

Tested on: CEM cells HIV-1 protection, formazan growth assay
Experiment: NCI AIDS Antiviral Assay
Settings: for IC50: measured here: growth of uninfected CEM cells
Outline: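 Soluble formazan readout of cell growth; CEM cells ± HIV-1; 5 drug concs. ≥50% protection → retest; ≥50% again = moderately active; reproducible 100% = confirmed active.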

SMILES | EC50 [µM] | IC50 [µM] | outcome
C(=Nc1cnc2ccccc2c1)c1ccnc2ccccc12 | > 66.1 | 3.55 | 
N=C(N)SCCc1ccncc1 | > 200 | 155 | 
Cn1c(O)c(C=Nc2ccccc2[N+](=O)[O-])c(=O)n(C)c1=O |  |  | inactive
COC(=O)c1ccc(C(=O)OC)c2nc3cc(Cl)ccc3nc12 | > 30.2 | > 30.2 | 
COc1ccc(N(CN2C(=O)CCC2OC)C(C)=O)cc1 (configuration not stated) |  |  | inactive
CC1(CC(O)(C(F)(F)F)C(F)(F)F)NC(=O)NC1=O (configuration not stated) | > 200 | > 200 | 
N#Cc1c(NC(=O)CN2CCOCC2)c(C(=O)Nc2ccc(Cl)cc2)n2c1CCC2 | > 50.1 | > 50.1 | 
CC1(C)CC(=O)C2=C(C1)OC1(CC2c2ccc(Cl)cc2)CC(c2ccc(Cl)cc2)C2=C(CC(C)(C)CC2=O)O1 (configuration not stated) | > 100 | 15.1 | 
O=C1/C(=C/c2ccccc2)NC(=S)N1CN1CCCCC1 | > 200 | 33.9 | 
CN(C)CCSc1nccc(-c2ccc(-c3ccnc(SCCN(C)C)n3)s2)n1 | > 102 | 0.182 | 
Cc1cc(NS(=O)(=O)c2ccc(N)cc2)sn1 | > 200 | > 200 | 
CCOC(=O)CCC1(CCC(=O)OCC)CCCCCCCCC(CCC(=O)OCC)(CCC(=O)OCC)C(=O)C1=O | > 200 | > 200 | 
Cc1cc(Nc2ccc(N=Nc3ccc(O)c4ncccc34)cc2)nc(C)n1 | > 200 | 6.46 | 
CN(CCN)[C@H](CSSC[C@@H](c1ccccc1O)N(C)CCN)c1ccccc1O | > 200 | 17.8 | 
CC(CN(C)C)OC(=O)c1cc2ccccc2n1Cc1ccccc1 (configuration not stated) | > 200 | 87.1 | 
O=C1NN(c2ccccc2)[C@@H]2CCCC[C@H]12 | > 437 | > 437 | 
O=C1[C@@H]2C3SC(c4ccccc43)[C@@H]2C(=O)N1c1ccccc1 |  |  | inactive
CCOC(=O)NNC(=O)NCc1cccc(CNC(=O)NNC(=O)OCC)c1 | > 200 | > 200 | 
Cc1ccc(N=C[N-]c2ccc(C)cc2)cc1.Cc1ccc(N=C[N-]c2ccc(C)cc2)cc1.O=C([O-])C(F)(F)F.O=C([O-])C(F)(F)F.[OH3+].[OH3+].[Rh+2].[Rh+2] | > 14.1 | > 14.1 | 
c1cc(CSP234N5CCN2CCN3CCN4CC5)ccc1CSP123N4CCN1CCN2CCN3CC4 | > 100 | 36.3 | 
CCOC(=O)CNC(=O)C(CSSCC(NC(=O)OCc1ccccc1)C(=O)OC)NC(=O)C(NC(=O)OCc1ccccc1)C(C)C (configuration not stated) | > 200 | 129 | 
O=C(O)c1ccc(-c2ccc(C(=C(F)F)C(F)(F)F)cc2)cc1 |  |  | inactive

SMILES | EC50 [µM] | IC50 [µM] | outcome
N#C/C(=C1\OC(=N)C(c2ccc(Cl)cc2Cl)C1=O)c1ccc(Cl)cc1Cl (configuration not stated) |  |  | inactive
COC(=O)C1=C(C(=O)OC)SC(=C2SC3=C(SC(=C4SCCS4)S3)S2)S1 | > 100 | > 100 | 
O=C1/C(=C/c2ccccc2)CCCC12C(c1ccccc1)N2Cc1ccccc1 (configuration not stated) | > 200 | 7.41 | 
CC1CCCCN1CC(=O)c1ccc2c(c1)Sc1ccccc1O2 (configuration not stated) | > 200 | 8.13 | 
C1OC1CN1CCC(C2CCN(CC3CO3)CC2)CC1 (configuration not stated) | > 200 | 0.269 | 
O=Nc1c2n[nH]c1CCCCCCCCC2 | > 309 | 44.7 | 
O=c1cc(-c2ccccc2)oc2cc(OCCCCCCCCCCOc3ccc4c(=O)cc(-c5ccccc5)oc4c3)ccc12 | > 1.7 | > 1.7 | 
Cc1cc2c3c(c1)CCCN3CCC2 | > 200 | > 200 | 
CN(C)CCCNC(=O)c1cc(NC(=O)c2cc(NC(=O)c3cc(NC(=O)c4ccc(C(=O)Nc5cc(C(=O)Nc6cc(C(=O)Nc7cc(C(=O)NCCCN(C)C)n(C)c7)n(C)c6)n(C)c5)cc4)cn3C)cn2C)cn1C | > 100 | > 100 | 
CSc1nc2c(c(=O)[nH]1)N=C(c1ccc([N+](=O)[O-])cc1)CC(c1ccccc1)N2 (configuration not stated) |  |  | inactive
O=c1c(-c2ccccc2)c(SCCO)n(-c2ccccc2)c(=S)n1-c1ccccc1 | > 200 | > 200 | 
O=c1[nH]c2ccc(Cl)cc2c2oc(-c3ccccc3)nc12 |  |  | inactive
O=C1c2ccc3c4ccccc4n(-c4ccccc4)c3c2C(=O)N1c1ccc(Cl)cc1 |  |  | inactive
C[Si](C)(C)C1=C2C(=O)c3ccccc3C(=O)C2=C([Si](C)(C)C)[C@@H]2CCCC[C@H]12 | > 50.1 | > 50.1 | 
Cc1ccc(-c2n[nH]c(Cc3nc(-c4ccc(C)cc4)n[nH]3)n2)cc1 | > 200 | > 200 | 
CCOC(=O)c1oc2c(OC)ccc3c2c1CCC3 |  |  | inactive
O=c1c2c(-c3ccccc3)c3ccccc3nc2cnn1-c1ccccc1 | > 79.4 | > 79.4 | 
CCCCCCCCCn1ccnc1NCCCCCCNc1nccn1CCCCCCCCC | > 7.24 | 3.63 | 
O=S(=O)(/N=C1/SC(=Nc2ccccc2)N(c2ccccc2)/C1=N/S(=O)(=O)c1ccccc1)c1ccccc1 | > 200 | 2.82 | 
COc1ccc2[nH]c3c4c(cc(-c5ccccc5)c3c2c1)C(=O)N(c1ccccc1)C4=O | > 9.12 | > 9.12 | 
CC(=O)OCC12CC(CC1OC(C)=O)c1ccccc12 (configuration not stated) | > 251 | > 251 | 
